Measurements from the supplement of paper PMC11451515.

Test system: SEM cells
Test: cell viability relative to DMSO control; higher = less cytotoxic
Settings: 48 h
Procedure, shortened: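 Three leukemia lines were tested: NOMO1 and SEM at 500 cells/well and P12-Ichikawa at 1000 cells/well. Each was adapted for at least four passages in each medium and seeded in 5 μl in 1536-well plates, and library compounds in DMSO were pin-dosed from 47 μM to 0.79 nM in 11 threefold steps. After 48 h at 37°C, CellTiter-Glo One luminescence was read. Viability is a percentage relative to DMSO wells on each plate, with cell-free wells as background.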

[1] = HPLM + 10% dialyzed FBS, 0.000781 µM
[2] = HPLM + 10% dialyzed FBS, 0.00234 µM
[3] = HPLM + 10% dialyzed FBS, 0.00702 µM
[4] = HPLM + 10% dialyzed FBS, 0.0211 µM
[5] = HPLM + 10% dialyzed FBS, 0.0632 µM
[6] = HPLM + 10% dialyzed FBS, 0.19 µM
[7] = HPLM + 10% dialyzed FBS, 0.569 µM
[8] = HPLM + 10% dialyzed FBS, 1.71 µM
[9] = HPLM + 10% dialyzed FBS, 5.12 µM
[10] = HPLM + 10% dialyzed FBS, 15.4 µM
[11] = HPLM + 10% dialyzed FBS, 46.1 µM
[12] = RPMI 5 mM glucose + 10% FBS, 0.000781 µM
[13] = RPMI 5 mM glucose + 10% FBS, 0.00234 µM
[14] = RPMI 5 mM glucose + 10% FBS, 0.00702 µM
[15] = RPMI 5 mM glucose + 10% FBS, 0.0211 µM
[16] = RPMI 5 mM glucose + 10% FBS, 0.0632 µM
[17] = RPMI 5 mM glucose + 10% FBS, 0.19 µM
[18] = RPMI 5 mM glucose + 10% FBS, 0.569 µM
[19] = RPMI 5 mM glucose + 10% FBS, 1.71 µM
[20] = RPMI 5 mM glucose + 10% FBS, 5.12 µM
[21] = RPMI 5 mM glucose + 10% FBS, 15.4 µM
[22] = RPMI 5 mM glucose + 10% FBS, 46.1 µM
[23] = RPMI 5 mM glucose + 10% dialyzed FBS, 0.000781 µM
[24] = RPMI 5 mM glucose + 10% dialyzed FBS, 0.00234 µM
[25] = RPMI 5 mM glucose + 10% dialyzed FBS, 0.00702 µM
[26] = RPMI 5 mM glucose + 10% dialyzed FBS, 0.0211 µM
[27] = RPMI 5 mM glucose + 10% dialyzed FBS, 0.0632 µM
[28] = RPMI 5 mM glucose + 10% dialyzed FBS, 0.19 µM
[29] = RPMI 5 mM glucose + 10% dialyzed FBS, 0.569 µM
[30] = RPMI 5 mM glucose + 10% dialyzed FBS, 1.71 µM
[31] = RPMI 5 mM glucose + 10% dialyzed FBS, 5.12 µM
[32] = RPMI 5 mM glucose + 10% dialyzed FBS, 15.4 µM
[33] = RPMI 5 mM glucose + 10% dialyzed FBS, 46.1 µM

Compound | cell viability [1] [%] | cell viability [2] [%] | cell viability [3] [%] | cell viability [4] [%] | cell viability [5] [%] | cell viability [6] [%] | cell viability [7] [%] | cell viability [8] [%] | cell viability [9] [%] | cell viability [10] [%] | cell viability [11] [%] | cell viability [12] [%] | cell viability [13] [%] | cell viability [14] [%] | cell viability [15] [%] | cell viability [16] [%] | cell viability [17] [%] | cell viability [18] [%] | cell viability [19] [%] | cell viability [20] [%] | cell viability [21] [%] | cell viability [22] [%] | cell viability [23] [%] | cell viability [24] [%] | cell viability [25] [%] | cell viability [26] [%] | cell viability [27] [%] | cell viability [28] [%] | cell viability [29] [%] | cell viability [30] [%] | cell viability [31] [%] | cell viability [32] [%] | cell viability [33] [%]
CC(=O)O[C@@]12CO[C@@H]1C[C@H](O)[C@]3(C)[C@@H]2[C@H](OC(=O)C4=CC=CC=C4)[C@]5(O)C[C@H](OC(=O)C(O)[C@@H](NC(=O)OC(C)(C)C)C6=CC=CC=C6)C(=C(/[C@@H](O)C3=O)C5(C)C)/C (stereo not given in full) | 23.5 | 25.1 | 25.4 | 26 | 26.5 | 27.2 | 26.1 | 23.3 | 22.7 | 18.6 | 5.16 | 13.7 | 22 | 21.2 | 18.1 | 20.1 | 20.7 | 18.1 | 16.7 | 12.1 | 9.57 | 4.28 | 23.4 | 21.1 | 23 | 21.2 | 21.4 | 19.5 | 18.9 | 16.7 | 16.5 | 10.5 | 2.56
C#Cc1cccc(Nc2ncnc3cc(OC)c(OCCCCCCC(=O)NO)cc23)c1 | 118 | 119 | 104 | 110 | 95.9 | 73.4 | 44 | 15.1 | 6.25 | 5.23 | 3.28 | 88.3 | 91.8 | 75.6 | 81.3 | 69.8 | 46.3 | 26.5 | 6.61 | 4.45 | 3.81 | 1.74 | 119 | 123 | 108 | 120 | 117 | 59.2 | 28.8 | 9.73 | 6.06 | 5.12 | 2.79
NC(=O)Nc1cc(-c2ccc(CN3CCOCC3)cc2)sc1C(N)=O | 103 | 113 | 106 | 108 | 103 | 32.9 | 33.3 | 22.2 | 12.9 | 11.5 | 8.44 | 118 | 120 | 133 | 116 | 111 | 20.2 | 19.9 | 17.1 | 10.8 | 6.3 | 6.6 | 104 | 110 | 109 | 108 | 91.2 | 22.9 | 21.6 | 14.5 | 7.42 | 7.32 | 5.7
CC(C)C[C@H](NC(=O)[C@H](Cc1ccccc1)NC(=O)c1cnccn1)B(O)O | 82.8 | 88.2 | 95.9 | 46.6 | 5.6 | 4.11 | 3.83 | 3.37 | 2.58 | 1.95 | 1.04 | 90.9 | 102 | 113 | 38.4 | 6.07 | 3.74 | 3.71 | 3.19 | 2.6 | 1.56 | 0.977 | 90.4 | 84.7 | 84.5 | 31.1 | 6.17 | 4.26 | 4.12 | 3.78 | 3.01 | 2.1 | 1.1
C[C@@H]1C[C@H]2[C@@H]3CC\C4=C\C(=O)\C=C/[C@]4(C)[C@@]3(Cl)[C@@H](O)C[C@]2(C)[C@@]1(OC(=O)C5=CC=CO5)C(=O)CCl | 28.4 | 82.2 | 45.9 | 53.8 | 61 | 59.3 | 53.2 | 47.7 | 36.9 | 45.6 | 52 | 32.3 | 81.8 | 35.8 | 62.1 | 61 | 50.4 | 50.4 | 45.1 | 36.9 | 37.3 | 50.8 | 30.9 | 76.5 | 39 | 52.5 | 64.1 | 47 | 46.8 | 44.7 | 28.8 | 43 | 36.5
N\C1=N\C2=C(N=C[N]2COC(CO)CO)C(=O)N1 | 103 | 98.8 | 96.8 | 111 | 97 | 104 | 108 | 108 | 104 | 82.4 | 3.99 | 83.9 | 78.2 | 92.2 | 93.2 | 94.9 | 96.3 | 88.2 | 87.4 | 76 | 64.8 | 2.7 | 94.6 | 98.7 | 105 | 108 | 106 | 108 | 113 | 103 | 115 | 94.7 | 4.17
CCNc1cc(NC2CCC(O)CC2)nc(Nc2ccc3c(ccn3Cc3ccccc3)c2)n1 (stereo not given) | 102 | 119 | 129 | 127 | 118 | 137 | 124 | 147 | 123 | 117 | 105 | – | – | – | – | – | – | – | – | – | – | – | – | – | – | – | – | – | – | – | – | – | –
Cc1cc(O)c2c(c1)C(=O)c1cc(O)cc(O)c1C2=O | 102 | 108 | 110 | 115 | 100 | 108 | 98.9 | 99.4 | 106 | 99.4 | 86.7 | 101 | 99.3 | 101 | 101 | 120 | 128 | 111 | 102 | 112 | 120 | 86.5 | 92.7 | 106 | 114 | 117 | 112 | 106 | 106 | 106 | 123 | 103 | 103
OC(COC1=C2C(=O)\C=C(/OC2=CC=C1)C([O-])=O)COC3=C4C(=O)\C=C(/OC4=CC=C3)C([O-])=O | 65.3 | 72.3 | 76 | 73.9 | 77.7 | 43.5 | 80.8 | 88 | 95.9 | 73.1 | 96.8 | 71 | 83.6 | 85.6 | 84.3 | 86.6 | 20.2 | 65.6 | 74.7 | 99.4 | 65.9 | 90.9 | 72.1 | 74.5 | 76.6 | 73.5 | 91.4 | 64 | 82.6 | 95.1 | 102 | 76.9 | 97.7
